Assay results taken from patent US9359451B2, “Methods and compositions for treating trauma-hemorrhage using estrogen and derivatives thereof” (THE UAB RESEARCH FOUNDATION, priority 2012, dated 2016).

Key:
[1] = tested on: splenic macrophages (sMΦ) and peritoneal macrophages (pMΦ); assay: Splenic and peritoneal macrophage cytokine release after trauma-hemorrhage (ex vivo, LPS); format: in vivo, mouse; conditions: 24 h after trauma-hemorrhage, LPS 48 h
Experimental: Experimental groups. Ovariectomy was performed in female CBA/J mice 2 wk before trauma-hemorrhage using two dorsolateral incisions. […] Two weeks after ovariectomy, the animals were divided into four groups. Groups 1 and 2 consisted of sham-operated ovariectomized females, which were neither hemorrhaged nor resuscitated. Animals in groups 3 and 4 consisted of ovariectomized females, which were subjected to the trauma-hemorrhage procedure. Immediately before initiation of fluid resuscitation, animals in groups 1 and 3 received a subcutaneous injection of vehicle ([…] corn oil), and animals in groups 2 and 4 were treated with E2 ([…]/25 g body wt dissolved in […] corn oil). Each group consisted of 7-8 animals.
Trauma-hemorrhage procedure. Mice in the trauma-hemorrhage groups were lightly anesthetized with methoxyflurane (Metofane; Pitman Moore, Mundelein, Ill.) and restrained in a supine position, and a 2.5-cm midline laparotomy (i.e., soft tissue trauma induced) was performed, which was then closed aseptically in two layers using 6-0 Ethilon sutures (Ethicon, Somerville, N.J.). Both femoral arteries were then aseptically cannulated with polyethylene-10 tubing (Clay-Adams, Parsippany, N.J.) using a minimal dissection technique, and the animals were allowed to awaken. Blood pressure was constantly monitored by attaching one of the catheters to a blood pressure analyzer (Micro-Med, Louisville, Ky.). Lidocaine was applied to the incision sites to provide analgesia during the study period. Upon awakening, the animals were bled through the other catheter to a mean arterial blood pressure of 35±5 mmHg (mean arterial blood pressure prehemorrhage was 95±5 mmHg), which was maintained for 90 min. At the end of that procedure, the animals were resuscitated with four times the shed blood volume in the form of lactated Ringer solution. The catheters were then removed, the vessels were ligated, and the groin incisions were closed. Sham-operated animals underwent the same surgical procedure, which included ligation of both femoral arteries, but neither hemorrhage nor fluid resuscitation was carried out. There was no mortality observed in this model of trauma-hemorrhage.
Preparation of sMΦ and pMΦ culture. Spleens were harvested aseptically, and sMΦ cultures were established as previously described in detail (Zellweger 1996). Resident pMΦ were harvested by peritoneal lavage at 24 h after sham operation or trauma-hemorrhage and resuscitation, and monolayers were established as previously described (Ayala 1990). The monolayers of sMΦ and pMΦ (1×10^6 cells/ml) were stimulated with […] of lipopolysaccharide W/ml Click's medium containing 10% heat-inactivated FBS for 48 h at 37° C., 5% CO2, and 90% humidity to assess the cells' ability to release cytokines (Lipopolysaccharide W was from Escherichia coli 055:B5, Difco Laboratories, Detroit, Mich.) At the end of the incubation period, the culture supernatants were removed, centrifuged at 300 g for 15 min, divided into aliquots, and stored.
IL-10 concentrations in macrophage and splenocyte supernatants and IFN-γ levels in the splenocyte supernatants were determined using sandwich-enzyme-linked immunosorbent assay technique (ELISA) according to the manufacturer's recommendations (BD OptEIA ELISA set; BD Pharmingen, San Diego, Calif.).
IL-6 activity was determined by assessing the 72-h proliferation of the IL-6-dependent murine B cell hybridoma 7TD1 stimulated by serial dilutions of sMΦ and pMΦ supernatants (Ayala 1992). For the last 3 h of incubation, […] of a 3-(4,5-dimethylthiazol-2-yl)-2,5-diphenyltetrazolium bromide solution (5 mg/ml in RPMI 1640; Sigma Chemical, St. Louis, Mo.) was added to each well. The amount of dark blue formazan crystal formation was then measured spectrophotometrically. […]

Male SD rats = assay: Survival and blood pressure after trauma-hemorrhage with 60% blood loss and no fluid resuscitation; format: in vivo, rat
Experimental: 16 rats were subjected to 60% removal of blood volume, using the same protocol found in Example 5.
Furthermore, crystalloid fluid resuscitation was administered following an initial 3-hour interval after the trauma and major blood loss, and rats were followed for 7 days. It has been observed that rats which survive for the initial 3 hours uniformly go on to survive for prolonged period of time and were then sacrificed. The survival rate is 68% for estrogen-treated rats, while all untreated control rats have died within the initial 3-hour interval (see FIG. 21).
Although E2 administration after trauma-hemorrhage (T-H) and fluid resuscitation produces salutary effects on organ functions, it was not known if E2 has any beneficial effects after major blood loss in the absence of fluid resuscitation. Male SD rats ˜250 g) underwent T-H (tissue trauma, BP 40 mmHg in 10 min and maintained at that BP by further blood withdrawal until maximum bleed out (MBO, 60% of total blood volume) occurred (45:t5 min)). E2 i.v. (1 mg/Kg, 0.4 ml/Kg volume, i.e., 120 μL/300 g body weight) or vehicle (cyclodextrin, CD) was then infused. No additional fluid was given for 3 hours. If rats survived, they received Ringer's lactate, 4× the MBO volume. A custom-fabricated 31p coil was placed on the surface of the rat's liver after laparotomy in another group, and spectra acquired using 4.7T NMR spectroscopy via a 31p coil in real time before and during hemorrhagic shock. Shock increased phosphomonoester and Pi with a concomitant decrease in β-ATP in both groups.

## C[C@]12CC[C@@H]3c4ccc(O)cc4CC[C@H]3[C@@H]1CC[C@@H]2O [17β-estradiol]
[1]
  pMΦ IL-1β release: partial restoration of pMΦ IL-1β release
  pMΦ IL-6 production: maintained at sham levels
  pMΦ IL-10 production: not affected by either trauma-hemorrhage or E2 treatment
  sMΦ IL-6 release: did not influence IL-6 release
  sMΦ IL-10 release: significantly reduced IL-10 release
  sMΦ IL-12 production: prevented the depression in sMΦ IL-12 production
Male SD rats; E2 i.v. 1 mg/Kg, 0.4 ml/Kg at MBO (60% of total blood volume), vehicle cyclodextrin
  3-hour survival rates without fluid resuscitation: markedly improves 3-hour survival rates
Male SD rats; Ringer's lactate 4x MBO volume after 3 hours
  long-term survival after resuscitation: increases long-term survival after resuscitation
